Source: patent US20220031680A1, “Donecopride As Neuroprotective Agent In the Treatment of Neurodegenerative Diseases” (priority 2018, published 2022)

What was measured:
Aβ42 = Aβ42 concentration in cerebrospinal fluid of 5×FAD mice; assay type: in vivo, mouse; details: 1 mg/kg twice a week for 3 months; compared to controls
Procedure: (§1) 5×FAD mice received chronic treatments with drugs or vehicle according to 2 different protocols. In each experiment, drugs or vehicle solution were administered i.p. twice a week (1 mg/kg). In “Protocol 1”, mice (n=6-7 mice per group) were treated with compounds for two months, from 2 to 4 months of age. In “Protocol 2”, mice (n=7) were treated with compounds for three months, from 1 month to 4 months of age. At the end of each protocol, mice were anesthetized with a mixture of 100 mg/kg ketamine and 10 mg/kg xylazine in saline solution and perfused transcardially with PBS. Brains were quickly isolated on ice, the olfactory bulbs and cerebellum removed and the two hemispheres divided. One hemisphere was frozen on dry ice and stored at −80° C. for biochemical analysis, while the other was post-fixed in 4% PFA for immunohistochemistry (IHC).
Mice were anesthetized and mounted onto a stereotaxic instrument. The neck skin was cut and subcutaneous tissue and muscles separated with the help of micro-retractors (Fine Science Tools, Heidelberg, Germany). Mice were then laid down so that the head formed an angle of about 135° with the body (Liu and Duff (2008) J. Vis. Exp. 10:960). A capillary tube (Borosilicate glass, B100-75-10, Sutter Instruments, Novato, Calif., USA) was used to punch the dura mater of the cisterna magna. CSF was collected by capillary action and transferred to 0.5 mL microtubes, immediately frozen on dry ice and stored at −80° C. until use. Once thawed, samples were heated at 60° C. for 5 min as described in the international application WO 2008/009868 and analyzed without further freezing-thawing cycles.
ELISA kits from IBL International (Hamburg, Germany) for the dosage of Aβ40 (human amyloid β (1-40) assay kit, #27713) or Aβ42 (human amyloid β (1-42) assay kit, #27719) were used according to the manufacturer's instructions. Reactions were read at 620 nm and 450 nm using an Infinite 2000 luminescence counter. The obtained values were normalized to the protein concentration of each sample, measured using a BCA protein assay (Sigma-Aldrich). […]

5×FAD mice = test: Novel object recognition test in 5×FAD mice; assay type: in vivo, mouse; details: 1 mg/kg twice a week for 3 months; 24 h inter-session interval
Procedure: Animal experiments were carried out in accordance with the Directive by the Council of the European Communities of Nov. 24, 1986 (86/609/EEC). All efforts were made to minimize animal suffering and to reduce the number of mice used. The generation of 5×FAD mice was described in Oakley et al. (2006) J. Neurosci. 26:10129-10140. These transgenic mice overexpress both human APP (695) harboring the Swedish (K670N, M671L), Florida (1716V) and London (V7171) familial AD (FAD) mutations and human Presenilin 1 (PS1) harboring the two FAD mutations M146L and L286V. Expression of both transgenes is regulated by neuronal-specific elements of the mouse Thy1 promoter. The 5×FAD strain (B6/SJL genetic background) was maintained by crossing hemizygous transgenic mice with B6/SJL F1 breeders. The 5×FAD strain (C57BL/6J genetic background) was maintained by crossing hemizygous transgenic mice with C57BL/6J F1 breeders. All animals were genotyped by PCR using tail genomic DNA. Transgenic and WT mice were bred in our animal facility, had access to food and water ad libitum and were housed under a 12 h light-dark cycle at 22-24° C. Female 5×FAD mice were used in this study. For each experiment, the age of mice is indicated in months (with a two-week range).
Compounds were resuspended in DMSO (37.5 μg/μl, stored at −20° C.) and freshly diluted 1:250 in 0.9% NaCl prior administration. Vehicle solution (0.9% NaCl, 0.4% DMSO) was used as control.
5×FAD mice received chronic treatments with drugs or vehicle according to 2 different protocols. In each experiment, drugs or vehicle solution were administered i.p. twice a week (1 mg/kg). […]
The cognitive performance of mice was tested using the novel object recognition (NOR) test (Bevins and Besheer (2006) Nat. Protoc. 1:1306-1311). […] The whole experiment was video-recorded and object exploration [time spent by the mouse nose in contact with the object or by sniffing it at a distance s 1 cm] was blindly measured. […] A discrimination index was also calculated ([novel−familiar]/[familiar+novel]). […]

GFAP = test: Astrogliosis (GFAP staining) in 5×FAD mouse brain; assay type: in vivo; details: 1 mg/kg twice a week for 3 months
Procedure: as §1
(§2) Thirty-micrometer-thick sections were cut using a vibratome (Microm HM 650V, Thermo Scientific, Saint Herblain, France) and stored in cryoprotectant medium at −20° C. For the labeling of amyloid plaques, free-floating tissue sections of frontal cortex, hippocampus and entorhinal cortex (coordinates from the bregma: frontal cortex=1.98 mm, hippocampus=−1.94 mm, entorhinal cortex=−3.08 mm) were extensively washed in PBS and then incubated in blocking solution (PBS; 3% BSA; 0.1% Triton X-100) for 1 h. Sections were stained with Hoechst dye (1:1000, Life Technologies, Saint Aubin, France) for 15 minutes to detect cell nuclei and then with freshly prepared thioflavin T solution (#T3516-5G, Sigma-Aldrich) (final concentration: 0.01 mg/ml in blocking buffer) for 15 minutes. After washing in 70% ethanol for 5 minutes, samples were mounted on poly-lysine slides with coverslips. For GFAP (glial fibrillary acidic protein) staining, free-floating brain sections were blocked as before and incubated with polyclonal rabbit anti-GFAP (1:1000, Z0334, Dako, Les Ullis, France) at 4° C. overnight. After thioflavin T staining and washing with 70% ethanol, the secondary Alexafluor 594 goat anti-rabbit antibody (1:1000, A11012, Life Technologies) was added for 2 h. PBS washes and mounting were performed as described before.
(§3) Images were acquired with an Axiolmager Z1 microscope (Carl Zeiss S.A.S., Marly le Roi, France). Analysis of thioflavin T staining was performed blindly and data are presented as the mean number of particles per mm^2 in two to three tissue sections from the same brain area/animal (Image J software). GFAP expression was quantified using Image J software and results are expressed as area fractions.
(§4) 28 female 5×FAD mice (C57BL/6J genetic background) were used in this study. Mice received vehicle or compounds (1 mg/kg) i.p., twice a week for three months, from 1 to 4 months of age.

amyloid plaques = test: Number of amyloid plaques (thioflavin T) in 5×FAD mouse brain; assay type: in vivo; details: 1 mg/kg twice a week for 3 months
Procedure: as §1, §2, §3, §4
Anti-amyloid effect. Frontal cortex, hippocampus and entorhinal cortex were analyzed as representative areas of 5×FAD mouse brain (frontal, median and caudal sections) and of human brain regions that are affected early by Alzheimer's disease and are highly enriched in amyloid deposits.

In the case of `CCCCN1CCC(CCC(=O)c2cc(Cl)c(N)cc2OC)CC1` [RS 67333, 1-(4-amino-5-chloro-2-methoxy-phenyl)-3-(1-butyl-4-piperidinyl)-1-propanone, reference compound], the “Aβ42 concentration in cerebrospinal fluid (CSF)” value (Aβ42) is reported as “not significantly different”, the “recognition memory, exploration of novel vs familiar object (NOR)” value (5×FAD mice) is reported as “reverses cognitive impairment” and the “GFAP staining in frontal cortex or hippocampus” value (GFAP; compared to controls) is reported as “not significantly different”. The “decrease of GFAP staining in entorhinal brain slices” value (GFAP; compared to vehicle) was 62±6%, the “Amyloid plaque number in hippocampus” value (amyloid plaques; compared to controls) was “not significantly different” and the “reduction of the number of amyloid plaques in entorhinal cortex” value (amyloid plaques; compared to vehicle) was “No significant effect”. The “reduction of the number of amyloid plaques in frontal cortex” value (amyloid plaques; compared to vehicle) was “No significant effect”.
